Measured values: patent US20050232911A1, “Prevention and treatment of metabolic abnormalities associated with excess intramyocellular lipid” (priority 2004, published 2005)

Experiments:
whole animal models = settings: cited from earlier work
obese Zucker rats [1] = test: Insulin sensitivity by euglycemic-hyperinsulinemic clamp technique; assay type: in vivo, rat; settings: chronic administration
Procedure: Forty-five male obese Zucker rats are obtained at 5 weeks of age (Charles is River) and randomized into three groups of 15 each. Namely, the forty-five male obese Zucker rats are randomized into Control Group A, Control Group B, and L-Carn Group, which each consists of 15 rats. Control Group A and Control Group B receive normal rat chow throughout the study. The 15 Zucker rats in L-Carn Group receive 100 mg/kg bodyweight (BWt) of levocarnitine, daily, in their drinking water or mixed with their food. At 6 weeks of age, all groups are placed in metabolic cages for 24-hours to determine baseline protein and creatinine excretion rates, whereby proteinuria can be determined. […] At 6 weeks of age, the Zucker rats of Control Group A are anesthetized with sodium pentobarbital (50-60 mg/kg BWt intraperitoneally) and insulin sensitivity is determined using the euglycemic-hyperinsulinemic clamp technique, explained elsewhere herein. […] Blood glucose is determined every 15 minutes over a 120 minute baseline period. […] Blood glucose is analyzed every 5 minutes from a catheter in the femoral artery using a glucometer (Freestyle®, test volume required=0.3 μL) and the rate of D-glucose infused is adjusted to maintain plasma glucose at ˜5 mol/L. Whole body insulin sensitivity is calculated at the mean glucose infusion rate during the last 60 minutes of the euglycemic-hyperinsulinemic clamp study. […]

obese Zucker rats [2] = test: Intramyocellular lipid content (oil red O staining of adductor magnus muscle) after chronic levocarnitine; assay type: in vivo, rat; settings: obese Zucker rats with metabolic syndrome; chronic administration, 100 mg/kg bodyweight daily in drinking water or food
Procedure: Forty-five male obese Zucker rats are obtained at 5 weeks of age (Charles is River) and randomized into three groups of 15 each. Namely, the forty-five male obese Zucker rats are randomized into Control Group A, Control Group B, and L-Carn Group, which each consists of 15 rats. Control Group A and Control Group B receive normal rat chow throughout the study. The 15 Zucker rats in L-Carn Group receive 100 mg/kg bodyweight (BWt) of levocarnitine, daily, in their drinking water or mixed with their food. […] After determining insulin sensitivity, the adductor magnus muscle of the left hind leg is isolated and the anterior and posterior ends tied with 3-O silk and cut outside the ties. The muscle is placed across a wooden stick, slightly wider than the muscle section is long, and tied in place to preserve its normal amount of stretch, then immediately immersed in isopentane cooled in liquid nitrogen. […] The lipid content of the sections is determined by using histochemical staining. One such suitable histochemical staining process includes using lipid-soluble dye to dye respective sections of tissue which are then observed and/or other wise analyzed. […] Ones of the three muscle fiber types are examined and lipid concentrations are determined respectively, pursuant to techniques and methods well known to those skilled in the art. […]

obese Zucker rats [3] = test: Renal histology / kidney injury; assay type: in vivo, rat; settings: chronic administration, secondary benefit
Procedure: Forty-five male obese Zucker rats are obtained at 5 weeks of age (Charles is River) and randomized into three groups of 15 each. Namely, the forty-five male obese Zucker rats are randomized into Control Group A, Control Group B, and L-Carn Group, which each consists of 15 rats. Control Group A and Control Group B receive normal rat chow throughout the study. The 15 Zucker rats in L-Carn Group receive 100 mg/kg bodyweight (BWt) of levocarnitine, daily, in their drinking water or mixed with their food. At 6 weeks of age, all groups are placed in metabolic cages for 24-hours to determine baseline protein and creatinine excretion rates, whereby proteinuria can be determined. Systolic blood pressure measurements are obtained by tailcuff plethysmography and a sample of blood is obtained from the tail for determination of fasting plasma creatinine, insulin, blood glucose, triglycerides, and cholesterol. These measurements are subsequently repeated at 12, 18, and 24 weeks of age. […]
As one example, the PAS stained kidney sections are e.g. observed, examined, studied, and/or analyzed with light microscopy or other suitable means, while considering suitable observational criteria which includes, but is not limited to, a suitable glomerular sclerosis index, a suitable tubulointerstitial index, a suitable mesangial matrix index, and/or others. […]

[4] = carnitine treatment; cited from earlier work
Type II Diabetics = settings: acute administration; cited from earlier work
canine cardiac tissue = settings: cited from earlier work
[5] = cited from earlier work
obese Zucker rat = settings: treated rats; cited from earlier work

## CCOC(=O)[C@@]1(CCCCCCOc2ccc(Cl)cc2)CO1 [Etomoxir]
Whole animal models
  intramyocellular lipid: rise in intramyocellular lipid
  whole body insulin resistance: increasing degrees of whole body insulin resistance

## C[N+](C)(C)CC(O)CC(=O)[O-] (centres unmarked) [levocarnitine, 3-hydroxy-4-N trimethylammonium butyrate]
Obese Zucker rats [1]; obese Zucker rats with metabolic syndrome, 100 mg/kg bodyweight daily
  insulin sensitivity: improves insulin sensitivity
Obese Zucker rats [1]; obese Zucker rats
  systemic insulin concentrations: lower systemic insulin concentrations
Obese Zucker rats [2]
  intramyocellular lipid concentration: decreases the intramyocellular lipid concentration
Obese Zucker rats [3]
  kidney injury: reduction of kidney injury
[4]
  urinary excretion of long chain carnitine esters: increased urinary excretion of long chain carnitine esters
Type II Diabetics
  glucose storage and oxidation: both glucose storage and oxidation
  whole body glucose uptake: significantly increased whole body glucose uptake
Canine cardiac tissue
  elution of long chain acyl CoA esters: ability of levocarnitine to elute long chain acyl CoA esters has been demonstrated

## CN(CCOc1ccc(CC2SC(=O)NC2=O)cc1)c1ccccn1 (centres unmarked) [roziglitazone]
[5]; in vivo
  side effects: weight gain
Obese Zucker rat
  concentration of IMCL: reduce the concentration of IMCL
  insulin sensitivity: marked improvement in insulin sensitivity

## Cc1c(C)c2c(c(C)c1O)CCC(C)(COc1ccc(CC3SC(=O)NC3=O)cc1)O2 (centres unmarked) [troglitazone]
[5]; removed from the market
  hepatotoxicity: excessive hepatotoxicity
